Experimental data published in USRE47141E1, “Methods of treating fibrosis, cancer and vascular injuries” (EWHA University—Industry Collaboration Foundation, priority 2010, dated 2018).

Biological target: ALK5 (Homo sapiens (Human), UniProt P36897)
Assay: Cell-free assay for inhibition of ALK5 kinase phosphorylation
Assay type: biochemical
Settings: read-out: IC50 on ALK5 kinase phosphorylation

Sequence of ALK5 (P36897 34-503): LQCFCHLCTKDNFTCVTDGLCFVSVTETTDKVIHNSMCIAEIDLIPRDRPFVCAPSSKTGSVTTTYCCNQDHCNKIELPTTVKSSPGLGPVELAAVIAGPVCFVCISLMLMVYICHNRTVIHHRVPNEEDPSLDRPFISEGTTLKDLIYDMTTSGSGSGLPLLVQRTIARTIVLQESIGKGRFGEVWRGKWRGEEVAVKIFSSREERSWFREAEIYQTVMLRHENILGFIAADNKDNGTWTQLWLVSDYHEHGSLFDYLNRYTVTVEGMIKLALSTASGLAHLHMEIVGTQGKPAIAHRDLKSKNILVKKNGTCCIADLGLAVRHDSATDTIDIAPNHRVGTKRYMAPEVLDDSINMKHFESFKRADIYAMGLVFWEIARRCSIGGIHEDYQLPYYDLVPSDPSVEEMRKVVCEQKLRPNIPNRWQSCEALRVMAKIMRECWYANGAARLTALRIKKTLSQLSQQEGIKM

| SMILES | IC50 |
| --- | --- |
| Cc1cccc(-c2[nH]c(CNc3ccccc3)nc2-c2ccc3ncnn3c2)n1 [Example 1, N-((4-([1,2,4]triazolo[1,5-a]pyridin-6-yl)-5-(6-methylpyridin-2-yl)-1H-imidazol-2-yl)methyl)aniline] | 13.1 nM |
| Cc1cccc(-c2[nH]c(CNc3cccc(F)c3)nc2-c2ccc3ncnn3c2)n1 [Example 5, N-((4-([1,2,4]triazolo[1,5-a]pyridin-6-yl)-5-(6-methylpyridin-2-yl)-1H-imidazol-2-yl)methyl)-3-fluoroaniline] | 9.41 nM |
| Cc1cccc(-c2[nH]c(CNc3cccc(F)c3F)nc2-c2ccc3ncnn3c2)n1 [Example 7, N-((4-([1,2,4]triazolo[1,5-a]pyridin-6-yl)-5-(6-methylpyridin-2-yl)-1H-imidazol-2-yl)methyl)-2,3-difluoroaniline] | 8.96 nM |
| Cc1cccc(-c2[nH]c(CNc3cc(F)cc(F)c3)nc2-c2ccc3ncnn3c2)n1 [Example 9, N-((4-([1,2,4]triazolo[1,5-a]pyridin-6-yl)-5-(6-methylpyridin-2-yl)-1H-imidazol-2-yl)methyl)-3,5-difluoroaniline] | 6.39 nM |
| Cc1cccc(-c2[nH]c(CNc3ccccc3Cl)nc2-c2ccc3ncnn3c2)n1 [Example 10, N-((4-([1,2,4]triazolo[1,5-a]pyridin-6-yl)-5-(6-methylpyridin-2-yl)-1H-imidazol-2-yl)methyl)-2-chloroaniline] | 9.41 nM |
| Cc1cccc(-c2[nH]c(CNc3cccc(Cl)c3)nc2-c2ccc3ncnn3c2)n1 [Example 12, N-((4-([1,2,4]triazolo[1,5-a]pyridin-6-yl)-5-(6-methylpyridin-2-yl)-1H-imidazol-2-yl)methyl)-3-chloroaniline] | 6.16 nM |
| Cc1cccc(-c2[nH]c(CNc3cc(Cl)cc(Cl)c3)nc2-c2ccc3ncnn3c2)n1 [Example 17, N-((4-([1,2,4]triazolo[1,5-a]pyridin-6-yl)-5-(6-methylpyridin-2-yl)-1H-imidazol-2-yl)methyl)-3,5-dichloroaniline] | 14.6 nM |
| Cc1cccc(-c2[nH]c(CNc3ccccc3Br)nc2-c2ccc3ncnn3c2)n1 [Example 18, N-((4-([1,2,4]triazolo[1,5-a]pyridin-6-yl)-5-(6-methylpyridin-2-yl)-1H-imidazol-2-yl)methyl)-2-bromoaniline] | 6.54 nM |
| Cc1cccc(-c2[nH]c(CNc3cccc(Br)c3)nc2-c2ccc3ncnn3c2)n1 [Example 20, N-((4-([1,2,4]triazolo[1,5-a]pyridin-6-yl)-5-(6-methylpyridin-2-yl)-1H-imidazol-2-yl)methyl)-3-bromoaniline] | 4.53 nM |
| Cc1cccc(-c2[nH]c(CNc3ccc(Br)cc3)nc2-c2ccc3ncnn3c2)n1 [Example 22, N-((4-([1,2,4]triazolo[1,5-a]pyridin-6-yl)-5-(6-methylpyridin-2-yl)-1H-imidazol-2-yl)methyl)-4-bromoaniline] | 17.1 nM |
| Cc1cccc(-c2[nH]c(CNc3ccccc3C)nc2-c2ccc3ncnn3c2)n1 [Example 23, N-((4-([1,2,4]triazolo[1,5-a]pyridin-6-yl)-5-(6-methylpyridin-2-yl)-1H-imidazol-2-yl)methyl)-2-methylaniline] | 13.9 nM |
| Cc1cccc(NCc2nc(-c3ccc4ncnn4c3)c(-c3cccc(C)n3)[nH]2)c1 [Example 24, N-((4-([1,2,4]triazolo[1,5-a]pyridin-6-yl)-5-(6-methylpyridin-2-yl)-1H-imidazol-2-yl)methyl)-3-methylaniline] | 9.07 nM |
| CCc1cccc(NCc2nc(-c3ccc4ncnn4c3)c(-c3cccc(C)n3)[nH]2)c1 [Example 31, N-((4-([1,2,4]triazolo[1,5-a]pyridin-6-yl)-5-(6-methylpyridin-2-yl)-1H-imidazol-2-yl)methyl)-3-ethylaniline] | 8.01 nM |
| Cc1cccc(-c2[nH]c(CNc3ccccc3C(C)C)nc2-c2ccc3ncnn3c2)n1 [Example 33, N-((4-([1,2,4]triazolo[1,5-a]pyridin-6-yl)-5-(6-methylpyridin-2-yl)-1H-imidazol-2-yl)methyl)-2-isopropylaniline] | 14.2 nM |
| Cc1cccc(-c2[nH]c(CNc3ccc(C(C)C)cc3)nc2-c2ccc3ncnn3c2)n1 [Example 35, N-((4-([1,2,4]triazolo[1,5-a]pyridin-6-yl)-5-(6-methylpyridin-2-yl)-1H-imidazol-2-yl)methyl)-4-isopropylaniline] | 46 nM |
| C=Cc1cccc(NCc2nc(-c3ccc4ncnn4c3)c(-c3cccc(C)n3)[nH]2)c1 [Example 37, N-((4-([1,2,4]triazolo[1,5-a]pyridin-6-yl)-5-(6-methylpyridin-2-yl)-1H-imidazol-2-yl)methyl)-3-vinylaniline] | 11.9 nM |
| C=Cc1ccc(NCc2nc(-c3ccc4ncnn4c3)c(-c3cccc(C)n3)[nH]2)cc1 [Example 40, N-((4-([1,2,4]triazolo[1,5-a]pyridin-6-yl)-5-(6-methylpyridin-2-yl)-1H-imidazol-2-yl)methyl)-4-vinylaniline] | 29.6 nM |
| COc1ccccc1NCc1nc(-c2ccc3ncnn3c2)c(-c2cccc(C)n2)[nH]1 [Example 42, N-((4-([1,2,4]triazolo[1,5-a]pyridin-6-yl)-5-(6-methylpyridin-2-yl)-1H-imidazol-2-yl)methyl)-2-methoxyaniline] | 14.4 nM |
| COc1cccc(NCc2nc(-c3ccc4ncnn4c3)c(-c3cccc(C)n3)[nH]2)c1 [Example 43, N-((4-([1,2,4]triazolo[1,5-a]pyridin-6-yl)-5-(6-methylpyridin-2-yl)-1H-imidazol-2-yl)methyl)-3-methoxyaniline] | 14.3 nM |
| COc1ccc(NCc2nc(-c3ccc4ncnn4c3)c(-c3cccc(C)n3)[nH]2)cc1 [Example 44, N-((4-([1,2,4]triazolo[1,5-a]pyridin-6-yl)-5-(6-methylpyridin-2-yl)-1H-imidazol-2-yl)methyl)-4-methoxyaniline] | 48.1 nM |
| COc1ccc(NCc2nc(-c3ccc4ncnn4c3)c(-c3cccc(C)n3)[nH]2)cc1OC [Example 46, N-((4-([1,2,4]triazolo[1,5-a]pyridin-6-yl)-5-(6-methylpyridin-2-yl)-1H-imidazol-2-yl)methyl)-3,4-dimethoxyaniline] | 44.2 nM |
| COc1cc(NCc2nc(-c3ccc4ncnn4c3)c(-c3cccc(C)n3)[nH]2)cc(OC)c1 [Example 47, N-((4-([1,2,4]triazolo[1,5-a]pyridin-6-yl)-5-(6-methylpyridin-2-yl)-1H-imidazol-2-yl)methyl)-3,5-dimethoxyaniline] | 14.4 nM |

The remaining lines, values ahead:

| IC50 | SMILES |
| --- | --- |
| 17.4 nM | Cc1cccc(-c2[nH]c(CNc3ccc(F)cc3)nc2-c2ccc3ncnn3c2)n1 [Example 6, N-((4-([1,2,4]triazolo[1,5-a]pyridin-6-yl)-5-(6-methylpyridin-2-yl)-1H-imidazol-2-yl)methyl)-4-fluoroaniline] |
| 9.84 nM | Cc1cccc(-c2[nH]c(CNc3ccc(F)c(F)c3)nc2-c2ccc3ncnn3c2)n1 [Example 8, N-((4-([1,2,4]triazolo[1,5-a]pyridin-6-yl)-5-(6-methylpyridin-2-yl)-1H-imidazol-2-yl)methyl)-3,4-difluoroaniline] |
| 10.7 nM | Cc1cccc(-c2[nH]c(CNc3ccc(Cl)cc3)nc2-c2ccc3ncnn3c2)n1 [Example 14, N-((4-([1,2,4]triazolo[1,5-a]pyridin-6-yl)-5-(6-methylpyridin-2-yl)-1H-imidazol-2-yl)methyl)-4-chloroaniline] |
| 12.3 nM | Cc1cccc(-c2[nH]c(CNc3cccc(Cl)c3Cl)nc2-c2ccc3ncnn3c2)n1 [Example 15, N-((4-([1,2,4]triazolo[1,5-a]pyridin-6-yl)-5-(6-methylpyridin-2-yl)-1H-imidazol-2-yl)methyl)-2,3-dichloroaniline] |
| 7.54 nM | Cc1cccc(-c2[nH]c(CNc3ccc(Cl)c(Cl)c3)nc2-c2ccc3ncnn3c2)n1 [Example 16, N-((4-([1,2,4]triazolo[1,5-a]pyridin-6-yl)-5-(6-methylpyridin-2-yl)-1H-imidazol-2-yl)methyl)-3,4-dichloroaniline] |
| 15.6 nM | Cc1ccc(NCc2nc(-c3ccc4ncnn4c3)c(-c3cccc(C)n3)[nH]2)cc1 [Example 26, N-((4-([1,2,4]triazolo[1,5-a]pyridin-6-yl)-5-(6-methylpyridin-2-yl)-1H-imidazol-2-yl)methyl)-4-methylaniline] |
| 18 nM | Cc1cccc(-c2[nH]c(CNc3cccc(C)c3C)nc2-c2ccc3ncnn3c2)n1 [Example 27, N-((4-([1,2,4]triazolo[1,5-a]pyridin-6-yl)-5-(6-methylpyridin-2-yl)-1H-imidazol-2-yl)methyl)-2,3-dimethylaniline] |
| 17.4 nM | Cc1cccc(-c2[nH]c(CNc3ccc(C)c(C)c3)nc2-c2ccc3ncnn3c2)n1 [Example 28, N-((4-([1,2,4]triazolo[1,5-a]pyridin-6-yl)-5-(6-methylpyridin-2-yl)-1H-imidazol-2-yl)methyl)-3,4-dimethylaniline] |
| 14.3 nM | Cc1cc(C)cc(NCc2nc(-c3ccc4ncnn4c3)c(-c3cccc(C)n3)[nH]2)c1 [Example 29, N-((4-([1,2,4]triazolo[1,5-a]pyridin-6-yl)-5-(6-methylpyridin-2-yl)-1H-imidazol-2-yl)methyl)-3,5-dimethylaniline] |
| 10.6 nM | CCc1ccccc1NCc1nc(-c2ccc3ncnn3c2)c(-c2cccc(C)n2)[nH]1 [Example 30, N-((4-([1,2,4]triazolo[1,5-a]pyridin-6-yl)-5-(6-methylpyridin-2-yl)-1H-imidazol-2-yl)methyl)-2-ethylaniline] |
| 16.2 nM | Cc1cccc(-c2[nH]c(CNc3cccc(C(C)C)c3)nc2-c2ccc3ncnn3c2)n1 [Example 34, N-((4-([1,2,4]triazolo[1,5-a]pyridin-6-yl)-5-(6-methylpyridin-2-yl)-1H-imidazol-2-yl)methyl)-3-isopropylaniline] |
| 14.2 nM | C=Cc1ccccc1NCc1nc(-c2ccc3ncnn3c2)c(-c2cccc(C)n2)[nH]1 [Example 36, N-((4-([1,2,4]triazolo[1,5-a]pyridin-6-yl)-5-(6-methylpyridin-2-yl)-1H-imidazol-2-yl)methyl)-2-vinylaniline] |
| 57.5 nM | COc1cccc(NCc2nc(-c3ccc4ncnn4c3)c(-c3cccc(C)n3)[nH]2)c1OC [Example 45, N-((4-([1,2,4]triazolo[1,5-a]pyridin-6-yl)-5-(6-methylpyridin-2-yl)-1H-imidazol-2-yl)methyl)-2,3-dimethoxyaniline] |
